pKi: −log10 of the molar value.
Target: T1, purified human Factor XIa (Homo sapiens, UniProt P03951)
T1 construct: purified human Factor XIa; purchased Sekisui Diagnostics
Assay: Factor XIa Assay
Assay type: biochemical
Details: purified human Factor XIa 40 pM; substrate Z-Gly-Pro-Arg-AFC 100 μM; 50 mM HEPES pH 7.4; read-out: Hu FXIa Ki
Protocol: The effectiveness of a compound of the present invention as an inhibitor of Coagulation Factor XIa can be determined using a relevant purified serine protease, and an appropriate synthetic substrate. The rate of hydrolysis of the chromogenic or fluorogenic substrate by the relevant serine protease was measured both in the absence and presence of compounds of the present invention. Assays were conducted at room temperature or at 37° C. […] A decrease in the rate of fluorescence change in the presence of inhibitor is indicative of enzyme inhibition. Such methods are known to one skilled in the art. The results of this assay are expressed as the inhibitory constant, Ki.
Factor XIa determinations were made in 50 mM HEPES buffer at pH 7.4 containing 150 mM NaCl, 5 mM CaCl2, and 0.1% PEG 8000 (polyethylene glycol; JT Baker or Fisher Scientific). Determinations were made using purified human Factor XIa at a final concentration of 40 pM (Sekisui Diagnostics) and he synthetic substrate, Z-Gly-Pro-Arg-AFC, TFA salt (Sigma #C0980) at a concentration of 100 μM.
Activity assays were performed by diluting a stock solution of substrate at least tenfold to a final concentration ≤0.1 Km into a solution containing enzyme or enzyme equilibrated with inhibitor. Times required to achieve equilibration between enzyme and inhibitor were determined in control experiments. Initial velocities of product formation in the absence (Vo) or presence of inhibitor (Vi) were measured. Assuming competitive inhibition, and that unity is negligible compared Km/[S], [I]/e, and [I]/e (where [S], [I], and e respectively represent the total concentrations, of substrate, inhibitor and enzyme), the equilibrium constant (Ki) for dissociation of the inhibitor from the enzyme can be obtained from the dependence of Vo/Vi on [I] shown in the following equation. Vo/Vi=1+[I]/Ki
The activities shown by this assay indicate that the compounds of the invention may be therapeutically useful for treating or preventing various cardiovascular and/or cerebrovascular thromboembolic conditions in patients suffering from unstable angina, acute coronary syndrome, refractory angina, myocardial infarction, transient ischemic attacks, atrial fibrillation, stroke such as thrombotic stroke or embolic stroke, venous thrombosis, coronary and cerebral arterial thrombosis, cerebral and pulmonary embolism, atherosclerosis, deep vein thrombosis, disseminated intravascular coagulation, and reocclusion or restenosis of recanalized vessels. The Ki values measured for each of the example compounds of the invention using this assay are reported in the tables above (as “Hu FXIa Ki (nM)”).

T1 sequence (P03951 388-625 limits assumed): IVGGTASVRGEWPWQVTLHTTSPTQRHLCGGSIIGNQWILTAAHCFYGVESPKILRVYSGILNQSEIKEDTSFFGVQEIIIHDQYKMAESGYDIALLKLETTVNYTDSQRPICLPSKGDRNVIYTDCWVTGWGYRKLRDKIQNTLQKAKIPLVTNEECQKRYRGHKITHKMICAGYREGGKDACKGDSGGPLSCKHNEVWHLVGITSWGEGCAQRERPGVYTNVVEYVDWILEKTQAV
T1 sequence (P03951 19-387 partner limits assumed): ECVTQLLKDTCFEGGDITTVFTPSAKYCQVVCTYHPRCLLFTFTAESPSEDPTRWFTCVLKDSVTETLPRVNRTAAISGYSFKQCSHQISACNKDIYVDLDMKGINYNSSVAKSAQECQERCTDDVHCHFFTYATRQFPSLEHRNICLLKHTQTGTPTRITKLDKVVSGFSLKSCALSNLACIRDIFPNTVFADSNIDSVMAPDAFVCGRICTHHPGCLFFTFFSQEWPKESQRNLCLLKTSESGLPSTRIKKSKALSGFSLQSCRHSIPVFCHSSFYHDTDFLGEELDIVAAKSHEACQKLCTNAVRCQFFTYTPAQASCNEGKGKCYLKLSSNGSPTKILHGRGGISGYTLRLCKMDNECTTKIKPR

pKi | Molecule
< 6.06 | COC(=O)Nc1ccc2c(c1)NC(=O)CCCCC[C@H](C(=O)N1CCC[C@@]3(C1)OC(=O)Nc1ccc(Cl)cc13)c1cc-2ccn1 [Example 16a, methyl ((S)-10-((R)-6-chloro-2-oxo-1,2-dihydrospiro[benzo[d][1,3]oxazine-4,3′-piperidine]-1′-carbonyl)-4-oxo-3-aza-1(4,2)-pyridina-2(1,2)-benzenacyclodecaphane-2^4-yl)carbamate]
6.55 | COC(=O)Nc1ccc2c(c1)NC(=O)CCCCC[C@@H](C(=O)N1CCC[C@@]3(C1)OC(=O)Nc1ccc(Cl)cc13)c1cc-2ccn1 [Example 16b, methyl ((R)-10-((R)-6-chloro-2-oxo-1,2-dihydrospiro[benzo[d][1,3]oxazine-4,3′-piperidine]-1′-carbonyl)-4-oxo-3-aza-1(4,2)-pyridina-2(1,2)-benzenacyclodecaphane-2^4-yl)carbamate]
< 5.06 | COC(=O)Nc1ccc2c(c1)NC(=O)CCCC[C@H](C(=O)N1CC[C@@]3(C1)OC(=O)Nc1ccc(Cl)cc13)c1cc-2ccn1 [Example 17b, methyl ((S)-9-((R)-6-chloro-2-oxo-1,2-dihydrospiro[benzo[d][1,3]oxazine-4,3′-pyrrolidine]-1′-carbonyl)-4-oxo-3-aza-1(4,2)-pyridina-2(1,2)-benzenacyclononaphane-2^4-yl)carbamate]
6.70 | COC(=O)Nc1ccc2c(c1)NC(=O)CCCCC[C@H](C(=O)N1CC[C@@]3(C1)OC(=O)Nc1ccc(Cl)c(F)c13)c1cc-2ccn1 [Example 18b, methyl ((S)-10-((R)-6-chloro-5-fluoro-2-oxo-1,2-dihydrospiro[benzo[d][1,3]oxazine-4,3′-pyrrolidine]-1′-carbonyl)-4-oxo-3-aza-1(4,2)-pyridina-2(1,2)-benzenacyclodecaphane-2^4-yl)carbamate]
7.31 | COC(=O)Nc1ccc2c(c1)NC(=O)CCCCC[C@@H](C(=O)N1CCC[C@@]3(C1)OC(=O)Nc1ccc(Cl)c(F)c13)c1cc-2ccn1 [Example 19a, methyl ((R)-10-((R)-6-chloro-5-fluoro-2-oxo-1,2-dihydrospiro[benzo[d][1,3]oxazine-4,3′-piperidine]-1′-carbonyl)-4-oxo-3-aza-1(4,2)-pyridina-2(1,2)-benzenacyclodecaphane-2^4-yl)carbamate]
< 6.06 | COC(=O)Nc1ccc2c(c1)NC(=O)CCCCC[C@H](C(=O)N1CCC[C@@]3(C1)OC(=O)Nc1ccc(Cl)c(F)c13)c1cc-2ccn1 [Example 19b, methyl ((S)-10-((R)-6-chloro-5-fluoro-2-oxo-1,2-dihydrospiro[benzo[d][1,3]oxazine-4,3′-piperidine]-1′-carbonyl)-4-oxo-3-aza-1(4,2)-pyridina-2(1,2)-benzenacyclodecaphane-2^4-yl)carbamate]
6.68 | Nc1ccc2c(c1)NC(=O)CC/C=C\C[C@@H](C(=O)N1CCC[C@@]3(C1)OC(=O)Nc1ccc(Cl)c(F)c13)c1cc-2ccn1 [Example 20a, (R)-1′-((R,Z)-2^4-amino-4-oxo-3-aza-1(4,2)-pyridina-2(1,2)-benzenacyclodecaphan-7-ene-10-carbonyl)-6-chloro-5-fluorospiro[benzo[d][1,3]oxazine-4,3′-piperidin]-2(1H)-one]
< 6.06 | COC(=O)Nc1ccc2c(c1)NC(=O)CC/C=C/C[C@H](C(=O)N1CCC[C@@]3(C1)OC(=O)Nc1ccc(Cl)c(F)c13)c1cc-2ccn1 [Example 21b, methyl ((S,E)-10-((R)-6-chloro-5-fluoro-2-oxo-1,2-dihydrospiro[benzo[d][1,3]oxazine-4,3′-piperidine]-1′-carbonyl)-4-oxo-3-aza-1(4,2)-pyridina-2(1,2)-benzenacyclodecaphanen-2^4-yl)carbamate]
< 6.06 | COC(=O)Nc1ccc2c(c1)NC(=O)CC/C=C\C[C@H](C(=O)N1CCC[C@@]3(C1)OC(=O)Nc1ccc(Cl)c(F)c13)c1cc-2ccn1 [Example 22b, methyl ((S,Z)-10-((R)-6-chloro-5-fluoro-2-oxo-1,2-dihydrospiro[benzo[d][1,3]oxazine-4,3′-piperidine]-1′-carbonyl)-4-oxo-3-aza-1(4,2)-pyridina-2(1,2)-benzenacyclodecaphanen-2^4-yl)carbamate]
< 6.06 | COC(=O)Nc1ccc2c(c1)NC(=O)CCCCC(C(=O)N1CCC[C@@]3(C1)OC(=O)Nc1ccc(Cl)c(F)c13)c1cccc-2n1 (stereo partly drawn) [Example 24, methyl (9-((R)-6-chloro-5-fluoro-2-oxo-1,2-dihydrospiro[benzo[d][1,3]oxazine-4,3′-piperidine]-1′-carbonyl)-4-oxo-3-aza-1(2,6)-pyridina-2(1,2)-benzenacyclononaphane-2^4-yl)carbamate]
< 6.06 | COC(=O)Nc1ccc2c(c1)NC(=O)CCCC[C@H](C(=O)N1CC[C@@]3(C1)OC(=O)Nc1ccc(Cl)c(F)c13)c1ccnc-2c1 [Example 25b, methyl ((S)-9-((R)-6-chloro-5-fluoro-2-oxo-1,2-dihydrospiro[benzo[d][1,3]oxazine-4,3′-pyrrolidine]-1′-carbonyl)-4-oxo-3-aza-1(2,4)-pyridina-2(1,2)-benzenacyclononaphane-2^4-yl)carbamate]
6.65 | COC(=O)Nc1ccc2c(c1)NC(=O)CCCC[C@@H](C(=O)N1CCC[C@@]3(C1)OC(=O)Nc1ccc(Cl)cc13)c1cc(F)cc-2c1 [Example 29a, methyl ((R)-9-((R)-6-chloro-2-oxo-1,2-dihydrospiro[benzo[d][1,3]oxazine-4,3′-piperidine]-1′-carbonyl)-1^5-fluoro-4-oxo-3-aza-1(1,3),2(1,2)-dibenzenacyclononaphane-2^4-yl)carbamate]
< 5.06 | COC(=O)Nc1ccc2c(c1)NC(=O)CCCC[C@H](C(=O)N1CCC[C@@]3(C1)OC(=O)Nc1ccc(Cl)cc13)c1cc(F)cc-2c1 [Example 29b, methyl ((S)-9-((R)-6-chloro-2-oxo-1,2-dihydrospiro[benzo[d][1,3]oxazine-4,3′-piperidine]-1′-carbonyl)-1^5-fluoro-4-oxo-3-aza-1(1,3),2(1,2)-dibenzenacyclononaphane-2^4-yl)carbamate]
< 5.06 | COC(=O)Nc1ccc2c(c1)NC(=O)CCCC[C@H](C(=O)N1CCC[C@@]3(C1)OC(=O)Nc1ccc(Cl)c(F)c13)c1cc(F)cc-2c1 [Example 30a, methyl ((S)-9-((R)-6-chloro-5-fluoro-2-oxo-1,2-dihydrospiro[benzo[d][1,3]oxazine-4,3′-piperidine]-1′-carbonyl)-1^5-fluoro-4-oxo-3-aza-1(1,3),2(1,2)-dibenzenacyclononaphane-2^4-yl)carbamate]
6.87 | COC(=O)Nc1ccc2c(c1)NC(C(=O)O)CCCCC(C(=O)N1CCC[C@@]3(C1)OC(=O)Nc1ccc(Cl)c(F)c13)c1nc-2c[nH]1 (stereo partly drawn) [Example 33, (Z)-9-((R)-6-chloro-5-fluoro-2-oxo-1,2-dihydrospiro[benzo[d][1,3]oxazine-4,3′-piperidine]-1′-carbonyl)-2^4-((methoxycarbonyl)amino)-1^1H-3-aza-1(4,2)-imidazola-2(1,2)-benzenacyclononaphane-4-carboxylic acid]
6.34 | COC(=O)Nc1ccc2c(c1)NC(=O)[C@@H](C)CCC[C@H](NC(=O)N1CCC[C@@]3(C1)OC(=O)Nc1ccc(Cl)cc13)c1cc-2ccn1 [Example 39, methyl ((5S,9S)-9-((R)-6-chloro-2-oxo-1,2-dihydrospiro[benzo[d][1,3]oxazine-4,3′-piperidine]-1′-carboxamido)-5-methyl-4-oxo-3-aza-1(4,2)-pyridina-2(1,2)-benzenacyclononaphane-2^4-yl)carbamate]
< 5.30 | COC(=O)Nc1ccc2c(c1)NC(=O)[C@H](C)CCC[C@H](NC(=O)N1CCC[C@@]3(C1)OC(=O)Nc1ccc(Cl)cc13)c1cc-2ccn1 [Example 40, methyl ((5R,9S)-9-((R)-6-chloro-2-oxo-1,2-dihydrospiro[benzo[d][1,3]oxazine-4,3′-piperidine]-1′-carboxamido)-5-methyl-4-oxo-3-aza-1(4,2)-pyridina-2(1,2)-benzenacyclononaphane-2^4-yl)carbamate]
6.74 | (R)-6-chloro-1′-((R,Z)-2^4-fluoro-4-oxo-11H-3-aza-1(4,2)-imidazola-2(1,2)-benzenacyclononaphane-9-carbonyl)spiro[benzo[d][1,3]oxazine-4,3′-pyrrolidin]-2(1H)-one [Example 5b]

— patent US10344039B2, “Macrocyclic spirocarbamate derivatives as factor XIa inhibitors, pharmaceutically acceptable compositions and their use” (MERCK SHARP & DOHME CORP., priority 2015, dated 2019)
